Values after ≈ are worked out from the molar mass of the structure shown.
Columns and labels:
[1] = system: Mycobacterium tuberculosis H37Rv (ATCC 27294); test: Primary screen (dose response), Microplate Alamar Blue Assay (MABA), Level-I antituberculosis assay; format: cell-based; settings: M. tuberculosis H37Rv, BACTEC 12B medium, concentration reducing fluorescence 90% relative to controls
Protocol: Primary Screen (Dose Response): Determination of a 90% Inhibitory Concentration (IC90). The initial screen is conducted against Mycobacterium tuberculosis H37Rv (ATCC 27294) in BACTEC 12B medium using the Microplate Alamar Blue Assay (MABA). Compounds are tested in ten 2-fold dilutions, typically from 100 μg/mL to 0.19 μg/mL. The IC90 is defined as the concentration effecting a reduction in fluorescence of 90% relative to controls. This value is determined from the dose-response curve using a curve-fitting program. Any IC90 value of ≦10 μg/mL is considered “Active” for antitubercular activity.

CCCCCCOC(=O)c1ccc(OC2CC[C@@]3(C)C(=CC[C@H]4[C@@H]5CC[C@H]([C@H](C)C=C[C@@H](CC)C(C)C)[C@@]5(C)CC[C@@H]43)C2)cc1 (some centres unmarked) [Compound I, n-hexyl-p-stigmasteryloxy-benzoate]
IC90 (90% inhibitory concentration) [1]: 6.25 µg/mL (≈ 10.1 µM)
CC50 (mammalian cell cytotoxicity) (VERO cells): 79.59 µg/mL (≈ 129 µM)

From patent publication US8389503B2, “Steroidal antitubercular compounds” (priority 2011, dated 2013)
